Test results taken from US9029389B2 (Institut Pasteur Korea, priority 2011, dated 2015).

Assays:
[1] = biological target: T1, Human 5-lipoxygenase (Homo sapiens, UniProt P09917); experiment: Activity of compounds against 5-LO enzyme (LTB4 measurement and/or fluorescence method); type: biochemical; settings: for inhibition at 10 µM: 5-LO, single concentration of 10 uM in duplicate; for IC50: 6 or 11 point dose response in duplicate
T1 construct: purchased Cayman 60402; host or cells: insect cells
T1 sequence (P09917 1-674): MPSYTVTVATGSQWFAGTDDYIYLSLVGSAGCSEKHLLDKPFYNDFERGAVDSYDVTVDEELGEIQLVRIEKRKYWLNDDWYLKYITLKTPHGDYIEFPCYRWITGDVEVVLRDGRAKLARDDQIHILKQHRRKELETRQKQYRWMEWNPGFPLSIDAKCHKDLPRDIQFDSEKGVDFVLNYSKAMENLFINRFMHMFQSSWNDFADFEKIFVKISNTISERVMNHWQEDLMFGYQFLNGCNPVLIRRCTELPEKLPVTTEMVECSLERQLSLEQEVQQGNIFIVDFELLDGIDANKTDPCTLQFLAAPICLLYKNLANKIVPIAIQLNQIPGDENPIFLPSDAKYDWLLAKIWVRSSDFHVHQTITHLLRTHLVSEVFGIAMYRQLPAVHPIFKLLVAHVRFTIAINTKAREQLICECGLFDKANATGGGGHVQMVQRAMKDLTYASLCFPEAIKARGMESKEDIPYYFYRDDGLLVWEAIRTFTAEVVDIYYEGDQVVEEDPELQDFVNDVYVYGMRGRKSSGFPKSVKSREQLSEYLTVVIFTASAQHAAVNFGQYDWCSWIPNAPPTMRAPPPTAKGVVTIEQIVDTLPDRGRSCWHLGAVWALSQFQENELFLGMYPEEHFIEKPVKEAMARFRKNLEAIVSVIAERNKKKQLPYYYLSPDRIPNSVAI
In short: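 Two read-outs: LTB4 measured by EIA and/or LC/MS/MS with LTB4-d4 standard after 15 min RT compound preincubation with insect-cell 5-LO and a 5 min 37 °C reaction on 3 uM arachidonic acid (0.1 mM ATP, pH 7.4). The room-temperature fluorescence format used 20 uM H2DCFDA, 100 uM ATP, 3 uM arachidonic acid, 5 min; IC50 from 6/11-point curves.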

Row | Structure (SMILES) | inhibition at 10 µM [1] [%] | melting point | IC50 [1] [nM]
1 | Cc1nc2ccc(Cl)cn2c1C(=O)NCc1ccc(OC(F)(F)F)cc1 [compound 184, 6-Chloro-2-methyl-N-(4-(trifluoromethoxy)benzyl)imidazo[1,2-a]pyridine-3-carboxamide] | < 40 | 192 to 193 °C | –
2 | CCc1nc2cc(Cl)ccn2c1C(=O)NCc1ccc(N2CCC(c3ccccc3)CC2)cc1 [compound 209, 7-Chloro-2-ethyl-N-(4-(4-phenylpiperidin-1-yl)benzyl)imidazo[1,2-a]pyridine-3-carboxamide] | > 69 | 164.5 °C | –
3 | CCc1nc2ccc(Cl)cn2c1CNc1ccc(N2CCC(c3ccc(Cl)cc3)CC2)cc1 [compound 392, N-((6-chloro-2-ethylimidazo[1,2-a]pyridin-3-yl)methyl)-4-(4-(4-chlorophenyl)piperidin-1-yl)aniline] | – | 159.5 °C | 1000 to 20000
4 | CCc1nc2ncccn2c1CNc1ccc(N2CCN(c3ccc(F)cc3)CC2)cc1 [compound 395, N-((2-Ethylimidazo[1,2-a]pyrimidin-3-yl)methyl)-4-(4-(4-fluorophenyl)piperazin-1-yl)aniline] | – | 210.7 °C | < 1000
5 | CCc1nc2ccc(Cl)cn2c1C(=O)NCc1ccc2oc(C3CCCCC3)nc2c1 [compound 298, 6-Chloro-N-((2-cyclohexylbenzo[d]oxazol-5-yl)methyl)-2-ethylimidazo[1,2-a]pyridine-3-carboxamide] | > 69 | 169.7 °C | 1000 to 20000
6 | CCc1nc2ccc(Cl)cn2c1C(=O)NCc1ccc(CC2CCOCC2)cc1 [compound 358, 6-chloro-2-ethyl-N-(4-((tetrahydro-2H-pyran-4-yl)methyl)benzyl)imidazo[1,2-a]pyridine-3-carboxamide] | < 40 | 132.2 to 133 °C | –
7 | CCc1nc2c[n+]([O-])ccn2c1C(=O)NCc1ccc(-c2ccc(Cl)cc2)cc1 [compound 310, 3-(((4′-Chloro-[1,1′-biphenyl]-4-yl)methyl)carbamoyl)-2-ethylimidazo[1,2-a]pyrazine 7-oxide] | 40 to 69 | 238 °C | 1000 to 20000
8 | CCc1nc2cc(C)ccn2c1C(=O)NCc1ccc2ccccc2c1 [compound 95, 2-Ethyl-7-methyl-N-(naphthalen-2-ylmethyl)imidazo[1,2-a]pyridine-3-carboxamide] | 40 to 69 | 192 °C | –
9 | CCc1nc2ccc(F)cn2c1C(=O)NCc1ccc(N2CCN(c3ccc(F)cc3)CC2)cc1 [compound 228, 2-Ethyl-6-fluoro-N-(4-(4-(4-fluorophenyl)piperazin-1-yl)benzyl)imidazo[1,2-a]pyridine-3-carboxamide] | > 69 | 200.9 °C | 1000 to 20000
10 | CCc1nc2ccc(Cl)cn2c1C(=O)NCc1nc2ccc(Cl)cc2s1 [compound 371, 6-chloro-N-((6-chlorobenzo[d]thiazol-2-yl)methyl)-2-ethylimidazo[1,2-a]pyridine-3-carboxamide] | < 40 | > 220 °C | –
11 | CCc1nc2ccc(Cl)cn2c1C(=O)NCC1CCN(Cc2ccc(F)cc2)CC1 [compound 139, 6-Chloro-2-ethyl-N-((1-(4-fluorobenzyl)piperidin-4-yl)methyl)imidazo[1,2-a]pyridine-3-carboxamide] | < 40 | 176 to 177 °C | –

Results, then the compound that gave them:

Row | inhibition at 10 µM [1] [%] | melting point | IC50 [1] [nM] | Structure (SMILES)
12 | < 40 | 204.8 °C | – | CCc1nc2cc(N3CCN(C)CC3)ccn2c1C(=O)NCc1ccc(N2CCOCC2)cc1 [compound 254, 2-Ethyl-7-(4-methylpiperazin-1-yl)-N-(4-morpholinobenzyl)imidazo[1,2-a]pyridine-3-carboxamide]
13 | 40 to 69 | 203.7 °C | – | CCc1nc2cc(C)ccn2c1C(=O)NCc1ccc(N2CCN(c3ccc(F)cc3)CC2)cc1 [compound 220, 2-Ethyl-N-(4-(4-(4-fluorophenyl)piperazin-1-yl)benzyl)-7-methylimidazo[1,2-a]pyridine-3-carboxamide]
14 | < 40 | 201.1 to 201.8 °C | – | CCc1nc2ccc(Cl)cn2c1C(=O)NCc1nc2ccc(Cl)cc2o1 [compound 369, 6-chloro-N-((6-chlorobenzo[d]oxazol-2-yl)methyl)-2-ethylimidazo[1,2-a]pyridine-3-carboxamide]
15 | < 40 | > 167.9 °C (dec.) | – | CCc1nc2ccc(F)cn2c1C(=O)NCc1ccc(N2CCC(c3ccc(OC(F)(F)F)cc3)CC2)cc1 [compound 372, 2-ethyl-6-fluoro-N-(4-(4-(4-(trifluoromethoxy)phenyl)piperidin-1-yl)benzyl)imidazo[1,2-a]pyridine-3-carboxamide]
16 | < 40 | > 220 °C | – | CCc1nc2ccc(Cl)cn2c1C(=O)NCc1nc2ccc(Cl)cc2n1C [compound 367, 6-chloro-N-((6-chloro-1-methyl-1H-benzo[d]imidazol-2-yl)methyl)-2-ethylimidazo[1,2-a]pyridine-3-carboxamide]
17 | < 40 | 244 °C | – | CCc1nc2cc(Cl)ccn2c1C(=O)NCc1ccc(N2CCC(C(N)=O)CC2)cc1 [compound 292, N-(4-(4-Carbamoylpiperidin-1-yl)benzyl)-7-chloro-2-ethylimidazo[1,2-a]pyridine-3-carboxamide]
18 | < 40 | 129.9 °C | – | CCc1nc2ccc(Cl)cn2c1-c1nc(Cc2ccc(Oc3ccc(F)cc3)cc2)no1 [compound 289, 5-(6-Chloro-2-ethylimidazo[1,2-a]pyridin-3-yl)-3-(4-(4-fluorophenoxy)benzyl)-1,2,4-oxadiazole]
19 | 40 to 69 | 186.3 °C | – | CCc1nc2c(OC(F)F)cccn2c1C(=O)NCc1ccc(N2CCN(c3ccc(F)cc3)CC2)cc1 [compound 278, 8-(Difluoromethoxy)-2-ethyl-N-(4-(4-(4-fluorophenyl)piperazin-1-yl)benzyl)imidazo[1,2-a]pyridine-3-carboxamide]
20 | 40 to 69 | 123.3 to 123.8 °C | – | CCc1nc2ccc(Cl)cn2c1C(=O)OCc1ccc(Oc2ccccc2)cc1 [compound 163, 4-Phenoxybenzyl 6-chloro-2-ethylimidazo[1,2-a]pyridine-3-carboxylate]
21 | > 69 | 137.1 to 137.6 °C | 1000 to 20000 | CCc1nc2cc(Cl)ccn2c1C(=O)NCc1ccc(N2CCN(Cc3ccc(OC(F)(F)F)cc3)CC2)cc1 [compound 157, 7-Chloro-2-ethyl-N-(4-(4-(4-(trifluoromethoxy)benzyl)piperazin-1-yl)benzyl)imidazo[1,2-a]pyridine-3-carboxamide]
22 | < 40 | 228.2 °C | – | CCc1nc2ccc(Br)cn2c1C(=O)NCc1ccc(N2CCOCC2)cc1 [compound 240, 6-Bromo-2-ethyl-N-(4-morpholinobenzyl)imidazo[1,2-a]pyridine-3-carboxamide]
23 | < 40 | 176 to 177 °C | – | CCc1nc2cnccn2c1C(=O)NCc1ccc(OC(F)(F)F)cc1 [compound 141, 2-Ethyl-N-(4-(trifluoromethoxy)benzyl)imidazo[1,2-a]pyrazine-3-carboxamide]
24 | 40 to 69 | 171 °C | – | CCc1nc2ccc(Cl)cn2c1C(=O)NCc1ccc(N2CCC(COc3ccc(F)cc3)CC2)cc1 [compound 244, 6-Chloro-2-ethyl-N-(4-(4-((4-fluorophenoxy)methyl)piperidin-1-yl)benzyl)imidazo[1,2-a]pyridine-3-carboxamide]
25 | – | 148.6 to 148.8 °C | 1000 to 20000 | CCc1nc2ccc(Cl)cn2c1CNc1ccc(Oc2ccc(F)cc2)cc1 [compound 379, N-((6-Chloro-2-ethylimidazo[1,2-a]pyridin-3-yl)methyl)-4-(4-fluorophenoxy)aniline]
26 | – | 192.7 °C | < 1000 | CCc1nc2cccnn2c1CNc1ccc(N2CCN(c3ccc(F)cc3)CC2)cc1 [compound 396, N-((2-Ethylimidazo[1,2-b]pyridazin-3-yl)methyl)-4-(4-(4-fluorophenyl)piperazin-1-yl)aniline]
27 | < 40 | > 156.6 °C (dec.) | – | CCc1nc2cc(Cl)ccn2c1C(=O)NCc1ccc(C2CCOCC2)cc1 [compound 364, 7-chloro-2-ethyl-N-(4-(tetrahydro-2H-pyran-4-yl)benzyl)imidazo[1,2-a]pyridine-3-carboxamide]
28 | < 40 | 162.2 °C | – | CCc1nc2ccc(Cl)cn2c1C(=O)NCC(C)C [compound 239, 6-Chloro-2-ethyl-N-isobutylimidazo[1,2-a]pyridine-3-carboxamide]
